Data reported in US7625718B2, “SVCT2 transporters expressed in blood brain barrier cells” (XenoPort, Inc., priority 2005, dated 2009).

Columns and labels:
hSVCT2 [1] = target: T1, hSVCT2 (Homo sapiens, UniProt Q9UGH3); assay: hSVCT2 direct uptake assay in HEK-TREx-hSVCT2 cells (LC-MS-MS); format: cell-based; conditions: HEK-TREx-hSVCT2 cells induced to express hSVCT2
T1 construct: expressed in transfected cells; host or cells: HEK-TREx cells, tetracycline-induced
Method: A modified direct uptake assay was developed to determine the ability of test compounds to be transported into HEK-TREx cells induced to over-express hSVCT2. Four concentrations (bracketing the affinity as measured by competition assays) per compound were routinely tested. Non-specific uptake was determined by measuring the uptake into cells not induced to express the transporter (“no tet”).
The direct uptake assays were prepared as follows: Compounds were prepared for assay by diluting a 100 mM stock concentration (in DMSO or water, depending on compound solubility) to the appropriate working concentration. Typically, four concentrations bracketing the IC50 were tested. The highest test concentration for each compound was made in an Eppendorf tube and diluted into HBSS. The samples were robustly vortexed and centrifuged for 10 minutes at 13,200 rpm to spin down any precipitate. The supernatant from these samples (˜150 μl/well) was carefully removed and placed into six wells of row A (cmpd 1: A1-6; cmpd 2: A7-12) or row E (cmpd 3: E1-6; cmpd 4: E7-12) of a 96-well polypropylene “compound” plate. Three additional 2-fold dilutions were made in the subsequent rows (B-D or […]) in HBSS. […]

hSVCT2 [2] = target: T1, hSVCT2; assay: hSVCT2 competition uptake assay in HEK-TREx-hSVCT2 cells; format: cell-based
Method: A modified competition uptake assay was developed to determine the ability of a test compound(s) to inhibit the uptake of radiolabeled substrates into […] induced to over-express hSVCT2. The results are stated as affinities (IC50). The competition uptake assay was prepared as follows: Compounds were prepared for assay by diluting a 100 mM stock concentration (in DMSO) to the appropriate working concentration. Typically, seven-point dose response curves were prepared starting at a final assay concentration of 1 mM and carrying out three-fold dilutions. […] Scintillation fluid (200 μl) (Optiphase Supermix (Perkin Elmer) was added to each well, and the plate was covered with a 96-well adhesive plate cover and placed on a shaker for 10 minutes. The plates were counted on a 96-well plate scintillation counter for 60 sec/well. The data were analyzed using a sigmoidal dose response curve-fitting program (Prism, GraphPad, Inc, San Diego, Calif.; equation: one-site competition). FIG. 2 depicts the results of a competition experiment using HEK-TREx-SVCT2 cells. ^3H-Ascorbic acid was used as the substrate and unlabeled ascorbic acid was used as the competitor. […] Non-specific uptake was determined by measuring the uptake into cells not induced to express the transporter (“no tet”). […]

PgP = target: T2, PgP (Homo sapiens, UniProt P08183); assay: Transwell monolayer efflux assay in TREx-PgP MDCK cells; format: in vitro ADME
T2 construct: expressed in transfected cells; host or cells: MDCK cells, tetracycline-inducible
Method: Transwell monolayer efflux assays can be performed by transfecting MDCK cells with the tetracycline-inducible TREx-PgP expression vector. The cells optionally can be transfected with a nucleic acid encoding the transporter of interest. The transfected cells are seeded on polycarbonate filter membranes in transwell dishes and grown for 3-5 days, yielding a polarized monolayer with tight junctions between cells.

[3] = 2.5 nM, in the presence of 250 μM verapamil

T1 sequence (Q9UGH3 whole entry): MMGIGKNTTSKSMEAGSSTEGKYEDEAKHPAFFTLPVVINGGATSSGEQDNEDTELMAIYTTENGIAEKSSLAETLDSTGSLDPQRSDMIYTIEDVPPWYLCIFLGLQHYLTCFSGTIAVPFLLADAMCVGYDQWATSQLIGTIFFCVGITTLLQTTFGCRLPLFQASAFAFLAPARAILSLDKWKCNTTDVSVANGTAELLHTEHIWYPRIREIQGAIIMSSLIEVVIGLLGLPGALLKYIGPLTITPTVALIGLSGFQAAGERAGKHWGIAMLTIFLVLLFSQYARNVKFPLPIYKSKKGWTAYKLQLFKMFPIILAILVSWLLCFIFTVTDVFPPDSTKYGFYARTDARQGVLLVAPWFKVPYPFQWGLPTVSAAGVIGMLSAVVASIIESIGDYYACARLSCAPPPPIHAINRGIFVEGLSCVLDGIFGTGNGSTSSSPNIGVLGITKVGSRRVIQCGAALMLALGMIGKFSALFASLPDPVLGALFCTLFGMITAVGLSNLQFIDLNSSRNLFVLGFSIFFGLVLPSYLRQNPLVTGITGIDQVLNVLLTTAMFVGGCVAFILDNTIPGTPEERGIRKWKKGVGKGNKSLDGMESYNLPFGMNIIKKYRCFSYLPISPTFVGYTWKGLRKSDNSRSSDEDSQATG
T2 sequence (P08183 whole entry): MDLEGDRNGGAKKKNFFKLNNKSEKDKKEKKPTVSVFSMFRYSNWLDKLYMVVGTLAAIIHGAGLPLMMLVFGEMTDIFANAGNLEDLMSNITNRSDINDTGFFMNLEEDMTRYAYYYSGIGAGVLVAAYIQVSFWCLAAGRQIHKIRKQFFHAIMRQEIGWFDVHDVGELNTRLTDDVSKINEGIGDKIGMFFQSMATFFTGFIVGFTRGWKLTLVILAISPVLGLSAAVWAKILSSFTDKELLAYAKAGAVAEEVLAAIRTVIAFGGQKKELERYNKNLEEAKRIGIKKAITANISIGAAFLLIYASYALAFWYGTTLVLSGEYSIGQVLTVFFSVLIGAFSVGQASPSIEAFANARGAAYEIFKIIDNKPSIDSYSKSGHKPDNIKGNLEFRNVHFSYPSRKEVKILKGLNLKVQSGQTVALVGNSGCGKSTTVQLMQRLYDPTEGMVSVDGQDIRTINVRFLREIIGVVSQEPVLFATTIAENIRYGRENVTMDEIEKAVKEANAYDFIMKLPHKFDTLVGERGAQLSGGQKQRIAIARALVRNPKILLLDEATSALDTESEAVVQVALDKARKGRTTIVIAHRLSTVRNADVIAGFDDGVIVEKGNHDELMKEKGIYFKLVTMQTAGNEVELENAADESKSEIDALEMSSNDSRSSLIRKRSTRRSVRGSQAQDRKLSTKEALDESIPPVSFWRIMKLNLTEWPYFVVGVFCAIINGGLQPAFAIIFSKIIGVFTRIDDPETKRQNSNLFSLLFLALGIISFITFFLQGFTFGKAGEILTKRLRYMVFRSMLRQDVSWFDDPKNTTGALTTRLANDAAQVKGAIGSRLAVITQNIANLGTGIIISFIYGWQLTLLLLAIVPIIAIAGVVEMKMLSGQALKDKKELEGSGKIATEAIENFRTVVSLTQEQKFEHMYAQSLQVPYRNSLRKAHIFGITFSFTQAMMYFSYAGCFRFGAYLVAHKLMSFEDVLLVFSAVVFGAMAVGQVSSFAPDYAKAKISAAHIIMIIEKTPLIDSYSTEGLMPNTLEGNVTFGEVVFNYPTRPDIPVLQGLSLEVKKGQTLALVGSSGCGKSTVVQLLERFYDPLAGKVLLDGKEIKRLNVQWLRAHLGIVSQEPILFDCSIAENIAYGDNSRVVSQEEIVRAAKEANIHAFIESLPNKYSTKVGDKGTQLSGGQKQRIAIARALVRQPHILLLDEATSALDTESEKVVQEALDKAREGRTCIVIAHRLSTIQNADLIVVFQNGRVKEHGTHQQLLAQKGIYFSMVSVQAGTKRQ

SMILES: O=C1O[C@H]([C@@H](O)CO)C(O)=C1O [Ascorbic Acid]
- Direct Uptake Vmax (hSVCT2 [1]): 21 pmol/min/well
- uptake of labeled ascorbic acid as concentration of unlabeled ascorbic acid increased (hSVCT2 [2]; cells induced to express SVCT2, ^3H-ascorbic acid substrate, FIG. 2): decreased
- IC50 (hSVCT2 [2]; inhibition of radiolabeled ascorbic acid uptake, HEK-TREx-hSVCT2 cells induced to express hSVCT2): 55 µM

SMILES: CC[C@]1(O)C[C@@H]2CN(CCc3c([nH]c4ccccc34)[C@@](C(=O)OC)(c3cc4c(cc3OC)N(C)[C@H]3[C@@](O)(C(=O)OC)[C@H](OC(C)=O)[C@]5(CC)C=CCN6CC[C@]43[C@@H]65)C2)C1 [^3H-vinblastine]
- efflux transporter substrate status (PgP): substrate of PgP
- apical to basolateral transport (PgP; [3]): strongly increased
- basolateral to apical transport (PgP; [3]): strongly decreased
